Values joined by “and” are separate entries in the source; they are usually repeats but may differ in a detail not shown here. Equal values may be shown once.

We go through one compound from US20230118682A1, “MODIFIED J-AGGREGATES AND CONJUGATES THEREOF” (GEORGE MASON UNIVERSITY, priority 2021, published 2023).

The nature of series [1]: Photoacoustic signal relative to whole blood. On the set-up: species or system sheep. Particulars: 20 μM, excited at 895 nm, PTFE tubing. The procedure: Photoacoustic Measurement: The 96-well plate was secured to the bottom of a plastic water reservoir. The reservoir was filled with deionized water, completely submerging the sample. For comparison of smaller volumes, 2-inch segments of 24-gauge PTFE tubing ([…]) was filled with various samples. The tubes were placed in a clear acrylic chamber submerging the samples in deionized water. A single element piezoelectric 35 MHz or 5 MHz focused transducer (V326, Olympus, Mass., USA) was fixed at 12 mm or 45 mm above each sample with their functional element submerged in deionized water. […] The photoacoustic signal recorded from the transducer is sent to a 20/40db amplifier (HVA-200M, Femto) from there the signal is recorded through a lock-in amplifier (Zurich Instruments, Zurich, Switzerland) triggered on each laser pulse using a photodiode placed near the laser source. […] The absolute amplitude of each waveform was calculated, averaged, and normalized to the signal recorded from India ink or whole sheep's blood containing anticoagulant.
To explore the possibility of using JAAZ in vivo, the photoacoustic signal was compared to whole blood. […] PA signals were recorded from each sample and the signal amplitude was normalized to the whole-blood PA-signal amplitude (FIG. 5D). […]
The in-vitro photoacoustic (PA) properties of the N-JAAZ particles were further evaluated. […]

The nature of series [2]: Fluorescence measurements. The class given is physicochemical. Particulars: excitation 720 nm, emission 770-850 nm. The protocol: Fluorescence measurements: Fluorescence intensity of different concentrations of free ICG dye and J-aggregates was recorded using a Tecan Safire^2™ (Mannendorf, Switzerland) fluorescence microplate reader. Both free ICG dye and J-aggregate particles were excited at 720 nm with an emission at 770 nm. The fluorescence emission spectrum was recorded from 770 to 850 nm with a step size of 2 nm.

A further series in a line: in vivo. The protocol:
(§1) We first acquired multiwavelength images of microcuvette tubes containing 0.4 mM of ICG dye or RGD-JAAZ particles to evaluate the PA spectra of both contrast agents. […] For in vivo imaging experiments, multispectral PAI were acquired in two female nu/nu nude mice at various timepoints (0, 10, 90 min) following tail-vein administration of ICG dye and RGD-JAAZ particles (FIGS. 39A-39D). A pre-injection baseline PA signal at 895 nm was also acquired for reference (FIG. 39B). […] Molecular maps were generated from a linear spectral unmixing of the multiwavelength PA images using previously reported spectra for hemoglobin and the measured spectra of the RGD-JAAZ particles at their injection concentration.

Series [3] can be described thus: Phantom PA spectra on TriTom imaging system. Particulars: 0.4 mM in microcuvette tubes. The protocol:
as §1

A word on the half-life: it is the time needed for the level to fall by half in the phase considered. Read a high half-life as slow decline. In the case of `CC1(C)C(/C=C/C=C/C=C/C=C2\N(CCCCS(=O)(=O)O)c3ccc4ccccc4c3C2(C)C)=[N+](CCCCS(=O)(=O)[O-])c2ccc3ccccc3c21` [ICG, Indocyanine Green], in series [1], the “PA signal relative to whole blood” value is about 0.03 x. Further, the fluorescence emission entry in series [2] is listed as “recordable fluorescence intensity”. Besides, the Contrast-to-noise ratio in “in vivo” (blood vessels, 90-minutes post-injection, n=2) is 1.59. The half-life in “in vivo” (female, nu/nu nude, mouse, in vivo) is 1.19 ± 0.45 min. Also, the “peak PA signal wavelength (phantom)” value in series [3] is 740 nm and 780 nm.
